Where two headings read alike, the source gives them in different places.
Legend:
[1] = biological target: T1, σ1R (Cavia porcellus, UniProt Q60492); test: σ1R radioligand binding in guinea pig cortex ([3H]-(+)-Pentazocine competition); conditions: for σ1/DAT: ratio of σ1 to DAT affinity values; for σ1/SERT: ratio of σ1 to SERT affinity values
T1 construct: tissue BioReclamation IVT (Hicksville, N.Y.); host or cells: male Hartley guinea pig brain cortex membranes
Method: (§1) Binding affinities of the analogue compounds were evaluated at the DAT and SERT in rat brain membranes, and sigma-1 in guinea pig brain membranes according to the following protocols.
σ1R Radioligand Binding in Guinea Pig Cortex
Male Hartley guinea pig cortices were dissected from freshly harvested brains (shipped cold in PBS buffer from BioReclamation IVT (Hicksville, N.Y.)) and frozen at −80° C. for future use. […] The supernatant was collected in a clean tube and the pellet re-suspended in 10 ml of cold buffer and centrifuged again (˜1,200 rpm) for 10 min at 4° C. […] The final pellet was suspended in ice-cold binding buffer at 50 mg/ml concentration. […] All test compounds were freshly dissolved in 30% DMSO and 70% H2O to a stock concentration of 1 mM or 100 μM. When necessary, to assist the solubilization of compounds, 10 μl of glacial acetic acid was added along with the DMSO (in place of 10 μl final H2O volume). Each test compound was then diluted into 10 half-log serial dilutions using 30% DMSO as the vehicle. […] Nonspecific binding was determined using either 10 μM PRE084 or 10 μM (+)-Pentazocine and total binding was determined with 30% DMSO vehicle (3% DMSO final concentration). […] The filters were washed 3 times with 3 ml (3×1 ml/well) of ice cold binding buffer.

[2] = biological target: T2, DAT (Rattus norvegicus, UniProt P23977); test: DAT radioligand binding in rat striatum ([3H]-WIN35,428 competition); conditions: for SERT/DAT: ratio of SERT Ki to DAT Ki
T2 construct: 100 μl of tissue preparation (1.5 mg of brain striatum membranes per well); tissue Bioreclamation IVT (Hicksville, N.Y.); host or cells: male Sprague-Dawley rat brain striatum membranes
Method: as §1
DAT Radioligand Binding in Rat Striatum
The tissue was centrifuged at 20,000 rpm for 10 min at 4° C. The pellet was suspended in cold buffer and centrifuged again using the same settings. The resulting pellet was resuspended in cold buffer at a concentration of 15 mg/mL OWW (original wet weight). On test day, all test compounds were freshly dissolved in 30% DMSO and 70% H2O to a stock concentration of 1 mM or 100 μM When necessary, to assist the solubilization of compounds, 10 μl of glacial acetic acid was added along with the DMSO (in place of 10 μl final H2O volume). Each test compound was then diluted into 10 half-log serial dilutions using 30% DMSO vehicle. […] Non-specific binding was determined using […] Indatraline and total binding was determined with 30% DMSO vehicle. The reaction was started with the addition of the tissue. […] The filters were washed 3 times with 3 mL (3×1 mL/well) of ice cold binding buffer. […] These analyses were performed using GraphPad Prism version 6.00 for Macintosh (GraphPad Software, San Diego, Calif.).

[3] = biological target: T3, SERT (Rattus norvegicus, UniProt P31652); test: SERT radioligand binding in rat midbrain ([3H]-Citalopram competition); conditions: rat midbrain/brain stem membranes, [3H]-Citalopram, mean ± SEM; read-out: SERT (rat mid-brain-stem) Ki ± SEM
T3 construct: 100 μl of tissue preparation (2 mg of brain stem membranes per well); tissue Bioreclamation IVT (Hicksville, N.Y.); host or cells: male Sprague-Dawley rat brain stem membranes
Method: as §1
SERT Radioligand Binding in Rat Midbrain
The tissue was centrifuged at 20,000 rpm for 10 min at 4° C. The pellet was suspended in cold buffer and centrifuged again using the same settings. The resulting pellet was resuspended in cold buffer at a concentration of 20 mg/mL OWW (original wet weight). On test day, all test compounds were freshly dissolved in 30% DMSO and 70% H2O to a stock concentration of 1 mM or 100 μM. When necessary, to assist the solubilization of compounds, 10 μl of glacial acetic acid was added along with the DMSO (in place of 10 μl final H2O volume). Each test compound was then diluted into 10 half-log serial dilutions using 30% DMSO vehicle. […] Non-specific binding was determined using […] Fluoxetine HCl and total binding was determined with 30% DMSO vehicle. The reaction was started with the addition of the tissue. All compound dilutions were tested in triplicate and the reaction incubated for 60 min at room temperature. The reaction was terminated by filtration through Perkin Elmer Uni-Filter-96 GF/B, presoaked for 60 min in 0.3% polyethylenimine, using a Brandel 96-Well Plates Harvester Manifold (Brandel Instruments, Gaithersburg, Md.). The filters were washed 3 times with 3 mL (3×1 mL/well) of ice cold binding buffer. […] These analyses were performed using GraphPad Prism version 6.00 for Macintosh (GraphPad Software, San Diego, Calif.).

[4] = Phase I metabolic stability in rat liver microsomes; assay type: in vitro ADME; conditions: for Phase I in Liver Microsomes, Negative Control: rat liver microsomes lacking NADPH; for Phase I in Liver Microsomes, Rat: with NADPH, 10 μM compound, 0.5 mg/mL microsomes; for stability to Phase I metabolism (in words): rat liver microsomes fortified with NADPH
Method: Methods: Phase I metabolic stability assays were conducted in rat liver microsomes. For phase I metabolism, the reactions were carried out with 100 mM potassium phosphate buffer, pH 7.4, in the presence of NADPH regenerating system (1.3 mM NADPH, 3.3 mM glucose 6-phosphate, 3.3 mM MgCl2, 0.4 U/mL glucose-6-phosphate dehydrogenase, […] sodium citrate). Reactions in triplicate were initiated by addition of the liver microsomes to the incubation mixture (compound final concentration was 10 μM; 0.5 mg/mL microsomes). Compound disappearance was monitored via LC/MS/MS. […] The total run time for each analyte was 5.0 min.

[5] = rat striatum membranes, [3H]-WIN35,428, mean ± SEM, read-out: DAT (rat striatum) Ki ± SEM

T2 sequence (P23977 whole entry): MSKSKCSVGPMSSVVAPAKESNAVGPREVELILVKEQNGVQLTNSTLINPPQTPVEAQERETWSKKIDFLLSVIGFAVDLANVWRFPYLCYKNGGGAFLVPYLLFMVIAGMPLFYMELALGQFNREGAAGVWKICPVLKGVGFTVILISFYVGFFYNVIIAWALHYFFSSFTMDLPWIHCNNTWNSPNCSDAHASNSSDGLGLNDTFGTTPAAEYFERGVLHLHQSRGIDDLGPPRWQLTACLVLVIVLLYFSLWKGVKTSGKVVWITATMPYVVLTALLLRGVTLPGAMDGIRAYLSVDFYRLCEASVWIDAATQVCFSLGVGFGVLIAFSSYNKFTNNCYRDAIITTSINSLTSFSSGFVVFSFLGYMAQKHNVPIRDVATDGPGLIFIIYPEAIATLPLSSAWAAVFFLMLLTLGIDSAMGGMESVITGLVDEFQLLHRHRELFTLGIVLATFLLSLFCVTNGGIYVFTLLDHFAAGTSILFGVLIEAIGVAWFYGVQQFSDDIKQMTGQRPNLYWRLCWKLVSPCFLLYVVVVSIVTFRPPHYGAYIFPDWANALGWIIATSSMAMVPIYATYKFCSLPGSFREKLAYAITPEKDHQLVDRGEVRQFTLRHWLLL
T3 sequence (P31652 whole entry): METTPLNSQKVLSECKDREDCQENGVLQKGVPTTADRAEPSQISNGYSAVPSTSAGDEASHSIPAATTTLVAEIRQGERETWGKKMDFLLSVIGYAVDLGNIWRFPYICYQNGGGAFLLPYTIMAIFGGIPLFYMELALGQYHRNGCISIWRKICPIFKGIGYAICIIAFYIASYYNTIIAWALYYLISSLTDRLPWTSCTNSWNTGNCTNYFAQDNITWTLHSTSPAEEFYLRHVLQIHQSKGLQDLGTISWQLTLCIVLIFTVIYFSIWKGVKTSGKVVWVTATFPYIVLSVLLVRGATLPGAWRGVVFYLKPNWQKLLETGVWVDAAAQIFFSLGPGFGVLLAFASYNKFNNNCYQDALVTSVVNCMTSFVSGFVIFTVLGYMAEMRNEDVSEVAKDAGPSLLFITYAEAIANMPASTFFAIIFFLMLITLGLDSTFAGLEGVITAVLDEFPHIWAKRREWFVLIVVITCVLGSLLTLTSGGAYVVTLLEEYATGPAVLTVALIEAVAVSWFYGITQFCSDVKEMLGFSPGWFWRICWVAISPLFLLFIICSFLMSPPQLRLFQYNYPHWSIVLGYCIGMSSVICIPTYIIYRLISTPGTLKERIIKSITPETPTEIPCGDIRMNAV
T1 sequence (Q60492 whole entry): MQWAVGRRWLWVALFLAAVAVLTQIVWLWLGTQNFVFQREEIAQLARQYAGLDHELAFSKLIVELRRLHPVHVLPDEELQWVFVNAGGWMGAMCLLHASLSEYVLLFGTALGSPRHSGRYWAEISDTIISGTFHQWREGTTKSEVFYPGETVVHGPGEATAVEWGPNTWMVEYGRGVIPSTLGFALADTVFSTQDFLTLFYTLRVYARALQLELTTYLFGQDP

| SMILES | Kd [1] [nM] | σ1/DAT [1] | σ1/SERT [1] | Ki [2, 5] [nM] | SERT/DAT [2] | Ki [3] [nM] | Phase I in Liver Microsomes, Negative Control ([4]; 0 min) [%] | Phase I in Liver Microsomes, Rat ([4]; 0 min) [%] | Phase I in Liver Microsomes, Negative Control ([4]; 30 min) [%] | Phase I in Liver Microsomes, Rat ([4]; 30 min) [%] | Phase I in Liver Microsomes, Negative Control ([4]; 60 min) [%] | Phase I in Liver Microsomes, Rat ([4]; 60 min) [%] | stability to Phase I metabolism (in words) [4] | Ki [2] [nM] |
| --- | --- | --- | --- | --- | --- | --- | --- | --- | --- | --- | --- | --- | --- | --- |
| Cl.O=C(c1ccc(F)cc1)N1CCC(NCC[S+]([O-])C(c2ccc(F)cc2)c2ccc(F)cc2)CC1 (centres unmarked) [JBG02-056, (4-((2-((Bis(4-fluorophenyl)methyl)sulfinyl)ethyl)amino)piperidin-1-yl)(4-fluorophenyl)methanone] | 1320 ± 36.5 | 17.10 | 0.29 | 77.2 ± 4.54 | 59.84 | 4620 ± 379 | 100 | 100 | 97 | 100 | 91 | 79 |  |  |
| [O-][S+](CCNC1CCN(CC(O)Cc2ccccc2)CC1)C(c1ccc(F)cc1)c1ccc(F)cc1 (centres unmarked) [JBG02-057, 1-(4-((2-((Bis(4-fluorophenyl)methyl)sulfinyl)ethyl)amino)piperidin-1-yl)-3-phenylpropan-2-ol] | 346 ± 27.1 | 3.77 | 0.58 | 91.8 ± 21.3 | 6.48 | 595 ± 54.1 | 100 | 100 | 102 | 50 | 100 | 22 | susceptibility |  |
| CC(O)CN1[C@H](C)CN(CCSC(c2ccc(F)cc2)c2ccc(F)cc2)C[C@@H]1C (stereo partly drawn) [RDS03-094, 1-((2S,6R)-4-(2-((Bis(4-fluorophenyl)methyl)thio)ethyl)-2,6-dimethylpiperazin-1-yl)propan-2-ol] |  | 0.24 | 0.00038 |  | 629.79 | 14800 ± 2260 | 100 | 100 | 106 | 99 | 109 | 68 | moderate stability | 23.5 ± 2.12 |
| C[C@@H]1CN(CCSC(c2ccc(F)cc2)c2ccc(F)cc2)C[C@H](C)N1CC(O)Cc1ccccc1 (stereo partly drawn) [RDS03-095, 1-((2S,6R)-4-(2-((bis(4-fluorophenyl)methyl)thio)ethyl)-2,6-dimethylpiperazin-1-yl)-3-phenylpropan-2-ol] |  | 7.60 | 0.010 | 2 ± 0.15 | 800.00 | 1600 ± 152 | 100 | 100 | 117 | 42 | 125 | 10 | susceptibility |  |
| OC(CN1CCC2(CCN(CCSC(c3ccc(F)cc3)c3ccc(F)cc3)CC2)C1)c1ccccc1 (centres unmarked) [RDS04-002] |  | 0.36 | 0.37 | 125 ± 9.7 | 0.99 | 124 ± 38.2 | 100 | 100 | 128 | 100 | 125 | 100 |  |  |
| CC(O)CN1[C@H](C)CN(CC[S+]([O-])C(c2ccc(F)cc2)c2ccc(F)cc2)C[C@@H]1C (stereo partly drawn) [RDS04-010, 1-((2S,6R)-4-(2-((Bis(4-fluorophenyl)methyl)sulfinyl)ethyl)-2,6-dimethylpiperazin-1-yl)propan-2-ol] |  | 1.29 | 0.017 | 245 ± 49.7 | 77.55 | 19000 ± 2550 | 100 | 100 | 130 | 115 | 108 | 95 |  |  |
| C[C@@H]1CN(CC[S+]([O-])C(c2ccc(F)cc2)c2ccc(F)cc2)C[C@H](C)N1CC(O)Cc1ccccc1 (stereo partly drawn) [RDS04-011, 1-((2S,6R)-4-(2-((Bis(4-fluorophenyl)methyl)sulfinyl)ethyl)-2,6-dimethylpiperazin-1-yl)-3-phenylpropan-2-ol] |  | 11.12 | 0.029 | 6.78 ± 2.97 | 377.58 | 2560 ± 181 | 100 | 100 | 132 | 58 | 106 | 26 | susceptibility |  |

— US11365195B2, “Atypical inhibitors of monoamine transporters; method of making; and use thereof” (THE UNITED STATES OF AMERICA, AS REPRESENTED BY THE …, priority 2017, dated 2022)
